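Tested at 5 concentrations; 48 h exposure; 96-well plates; endpoints linearly interpolated, else capped at highest concentration. GI50 is the concentration that inhibits growth by half.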 Active and inactive are the calls of the source. Rule as the data show it: active = GI50 up to about 1.1 µM and inactive = higher.
Key:
Assay in all cases: DTP human tumour cell line panel, 48 h
[1] = tested on: HT-29
[2] = tested on: SK-OV-3
[3] = tested on: ACHN
[4] = tested on: OVCAR-4
[5] = tested on: TK-10
[6] = tested on: K562
[7] = tested on: LOX IMVI
[8] = tested on: NCI-H226
[9] = tested on: HCT-15
[10] = tested on: Hs-578T
[11] = tested on: PC-3
[12] = tested on: MDA-N
[13] = tested on: SNB-75
[14] = tested on: HOP-92
[15] = tested on: HOP-62
[16] = tested on: MDA-MB-435
[17] = tested on: EKVX
[18] = tested on: HCC 2998
[19] = tested on: U-251
[20] = tested on: OVCAR-3

Compound	GI50 [1]	GI50 [2]	GI50 [3]	GI50 [4]	GI50 [5]	GI50 [6]	GI50 [7]	GI50 [8]	GI50 [9]	GI50 [10]	GI50 [11]	GI50 [12]	GI50 [13]	GI50 [14]	GI50 [15]	GI50 [16]	GI50 [17]	GI50 [18]	GI50 [19]	GI50 [20]
CN(C)c1ccc(Cc2cc3c(O)ccc(O)c3cc(Cc3ccc(N(C)C)cc3)c2=O)cc1	19.2 µM (inactive)	> 100 µM (inactive)	12.5 µM (inactive)	18.1 µM (inactive)	18.6 µM (inactive)	2.96 µM (inactive)	17.7 µM (inactive)	24.7 µM (inactive)	21.5 µM	44.3 µM (inactive)	15.4 µM (inactive)	18.8 µM (inactive)	> 55.8 µM (inactive)	3.08 µM (inactive)	45.7 µM (inactive)	15.1 µM (inactive)	19 µM (inactive)	23 µM (inactive)	20 µM (inactive)	14.3 µM (inactive)
NCCN1C(=O)CN=C(c2ccc(Cl)cc2)c2cc(Cl)ccc21	16.8 µM (inactive)	22.4 µM (inactive)	18.7 µM (inactive)	16.2 µM (inactive)	16.1 µM (inactive)	16.3 µM (inactive)	16.2 µM (inactive)	14 µM (inactive)	16.7 µM	16.1 µM (inactive)	14.8 µM (inactive)	16.7 µM (inactive)	14.9 µM (inactive)	9.84 µM (inactive)	17.3 µM (inactive)	14.9 µM (inactive)	26.2 µM (inactive)	16.5 µM (inactive)	16.8 µM (inactive)	15.5 µM (inactive)
CNC(=O)CC1NC(=O)c2csc(n2)-c2ccc(-c3nc(C4=NC(C(=O)N5CCCC5C(N)=O)CO4)cs3)nc2-c2csc(n2)-c2csc(n2)C(C(C)C)NC(=O)CNC(=O)c2csc(n2)C(C(C)C)NC(=O)c2nc1sc2C (centres undefined)	> 25 µM (inactive)	0.0013 µM (active)	4.37 µM (inactive)	4.33 µM (inactive)	0.0386 µM (active)	0.00239 µM (active)	0.00191 µM (active)	0.00391 µM (active)	0.479 µM	> 25 µM (inactive)	0.00489 µM (active)	> 25 µM (inactive)	0.00203 µM (active)	0.968 µM (active)	0.00826 µM (active)	> 25 µM (inactive)	2.38 µM (inactive)	0.00762 µM (active)	0.0025 µM (active)	0.00979 µM (active)
O=c1cnn(C2OC(C(O)CO)C(O)C2O)c(=O)[nH]1 (centres undefined)	> 100 µM (inactive)	> 100 µM (inactive)	> 100 µM (inactive)	> 100 µM (inactive)	> 100 µM (inactive)	> 100 µM (inactive)	> 100 µM (inactive)	> 100 µM (inactive)	> 100 µM	> 100 µM (inactive)	> 100 µM (inactive)	> 100 µM (inactive)	> 100 µM (inactive)	> 100 µM (inactive)	> 100 µM (inactive)	> 100 µM (inactive)	> 100 µM (inactive)	> 100 µM (inactive)	> 100 µM (inactive)	> 100 µM (inactive)
C[N+](C)(C)CC1CCCC1=O (centres undefined)	1.23 µM (inactive)	16.5 µM (inactive)	1.09 µM (active)	0.867 µM (active)	2.62 µM (inactive)	0.377 µM (active)	0.832 µM (active)	17.2 µM (inactive)	2.18 µM	3.43 µM (inactive)	1.41 µM (inactive)	1.69 µM (inactive)	3.1 µM (inactive)	1.07 µM (active)	29.8 µM (inactive)	1.71 µM (inactive)	2.16 µM (inactive)	16 µM (inactive)	13.2 µM (inactive)	2.36 µM (inactive)
O=C1/C(=C2/C(=O)N(c3ccccc3)c3ccccc32)Nc2ccccc21	59 µM (inactive)	43.6 µM (inactive)	21.2 µM (inactive)	25.5 µM (inactive)	27 µM (inactive)	42.2 µM (inactive)	78.3 µM (inactive)	27.9 µM (inactive)	50 µM	58.2 µM (inactive)	26.7 µM (inactive)	> 100 µM (inactive)	14.9 µM (inactive)	25.9 µM (inactive)	31.8 µM (inactive)	66.8 µM (inactive)	24.2 µM (inactive)	32.3 µM (inactive)	31.8 µM (inactive)	52 µM (inactive)
CCOC(=O)c1cccc([N+](=O)[O-])c1N	> 100 µM (inactive)	> 100 µM (inactive)	> 100 µM (inactive)	> 100 µM (inactive)	> 100 µM (inactive)	> 100 µM (inactive)	> 100 µM (inactive)	> 100 µM (inactive)	> 100 µM	41.2 µM (inactive)	> 100 µM (inactive)	> 100 µM (inactive)	62.1 µM (inactive)	> 100 µM (inactive)	> 100 µM (inactive)	> 100 µM (inactive)	6.11 µM (inactive)	> 100 µM (inactive)	> 100 µM (inactive)	> 100 µM (inactive)
Cc1c(C#N)c2nnn(-c3ccc([N+](=O)[O-])cc3)c(=O)n2c1-c1ccccc1	8.53 µM (inactive)	24.3 µM (inactive)	4.95 µM (inactive)	8.04 µM (inactive)	20 µM (inactive)	3.37 µM (inactive)	10.3 µM (inactive)	12.6 µM (inactive)	6.15 µM	25.5 µM (inactive)	4.26 µM (inactive)	10.2 µM (inactive)	19.8 µM (inactive)	8.05 µM (inactive)	7.29 µM (inactive)	13 µM (inactive)	8.89 µM (inactive)	7.43 µM (inactive)	4.26 µM (inactive)	3.03 µM (inactive)
CCN(CC)CCOCC1CCCN2CCCCC12 (centres undefined)	> 100 µM (inactive)	> 100 µM (inactive)	> 100 µM (inactive)	> 100 µM (inactive)	> 100 µM (inactive)	> 100 µM (inactive)	> 100 µM (inactive)	> 100 µM (inactive)	> 100 µM	> 100 µM (inactive)	> 100 µM (inactive)	> 100 µM (inactive)	> 100 µM (inactive)	> 100 µM (inactive)	> 100 µM (inactive)	> 100 µM (inactive)	> 100 µM (inactive)	> 100 µM (inactive)	> 100 µM (inactive)	> 100 µM (inactive)
O=C(C1OC1c1cccc([N+](=O)[O-])c1)C12CC3CC(CC(C3)C1)C2 (centres undefined)	3.39 µM (inactive)	16.9 µM (inactive)	9.59 µM (inactive)	4.27 µM (inactive)	18.1 µM (inactive)	2.58 µM (inactive)	1.72 µM (inactive)	10.5 µM (inactive)	4.3 µM	3.66 µM (inactive)	5.5 µM (inactive)	3.19 µM (inactive)	6.78 µM (inactive)	10.9 µM (inactive)	10.7 µM (inactive)	3.52 µM (inactive)	13.2 µM (inactive)	6.73 µM (inactive)	2.88 µM (inactive)	3.81 µM (inactive)
Oc1cc(Br)cc2cc(Cl)cnc12	11 µM (inactive)	30.2 µM (inactive)	1.95 µM (inactive)	1 µM (active)	28.5 µM (inactive)	0.627 µM (active)	0.635 µM (active)	16.3 µM (inactive)	0.665 µM	0.845 µM (active)	3.59 µM (inactive)	3.45 µM (inactive)	8.2 µM (inactive)	23.4 µM (inactive)	4.84 µM (inactive)	3.3 µM (inactive)	3.99 µM (inactive)	17.8 µM (inactive)	1.56 µM (inactive)	1.95 µM (inactive)
CCSCCCCC(c1ccc(O)cc1)C(C)(CC)c1ccc(O)cc1 (centres undefined)		21.1 µM (inactive)	18.6 µM (inactive)	21.7 µM (inactive)	17.4 µM (inactive)	42.1 µM (inactive)	17.6 µM (inactive)	17.9 µM (inactive)	18.4 µM	23.6 µM (inactive)	20.3 µM (inactive)	23.2 µM (inactive)	> 100 µM (inactive)	19.3 µM (inactive)	53.7 µM (inactive)	18.2 µM (inactive)	29.6 µM (inactive)	15.3 µM (inactive)	16.4 µM (inactive)	18.2 µM (inactive)
COc1cc2c(SCCN(C)C)nc3ccccc3c2c2ccccc12	2.64 µM (inactive)	10.4 µM (inactive)	1.78 µM (inactive)	2.62 µM (inactive)	2.7 µM (inactive)	1.72 µM (inactive)	1.69 µM (inactive)	1.94 µM (inactive)	1.61 µM	2.13 µM (inactive)	2.22 µM (inactive)	2.19 µM (inactive)	2.51 µM (inactive)	1.73 µM (inactive)	1.79 µM (inactive)	1.96 µM (inactive)	1.67 µM (inactive)	1.47 µM (inactive)	1.87 µM (inactive)	2.34 µM (inactive)
COc1cc(/C=C2\CC3C4CC[C@H]5C[C@@H](O)CC[C@]5(C)C4CC[C@]3(C)\C2=N\O)cc(OC)c1OC (some centres undefined)	7.36 µM (inactive)	19.2 µM (inactive)	6.59 µM (inactive)	5.74 µM (inactive)	16.8 µM (inactive)	4.66 µM (inactive)	11.5 µM (inactive)	10.8 µM (inactive)	9.48 µM	8.3 µM (inactive)	5.43 µM (inactive)	14.8 µM (inactive)	13.4 µM (inactive)	15.2 µM (inactive)	12 µM (inactive)	7.41 µM (inactive)	8.81 µM (inactive)	10.1 µM (inactive)	10.6 µM (inactive)	3.27 µM (inactive)

From ChEMBL document CHEMBL1201862, “PubChem BioAssay data set” (2004)
